Legend:
Type in all cases: in vivo
Lolium perenne (LOLPE) [1] = assay: Example B pre-emergence herbicidal test, LOLPE; conditions: Lolium perenne, 312 h, rate 250 g/ha, evaluated after 13 days, 100=total damage to plant, 0=no damage to plant
Outline: (§1)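 Plants were rated 13 days after treatment, 0 = no damage to 100 = total damage. They were grown in a glasshouse at 24/16 °C, 14 h light, 65% humidity and watered twice daily. Pre-emergence spray was applied one day after sowing, formulated in acetone/water 50:50 with 0.5% Tween 20.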

[2] = system: Alopecurus myosuroides (ALOMY); assay: Example B pre-emergence herbicidal test, ALOMY; conditions: Alopecurus myosuroides, 312 h, rate 250 g/ha, evaluated after 13 days, 100=total damage to plant, 0=no damage to plant
Outline: as §1

[3] = system: Echinochloa crus-galli (ECHCG); assay: Example B pre-emergence herbicidal test, ECHCG; conditions: Echinochloa crus-galli, 312 h, rate 250 g/ha, evaluated after 13 days, 100=total damage to plant, 0=no damage to plant
Outline: as §1

Avena fatua (AVEFA) [4] = assay: Example B pre-emergence herbicidal test, AVEFA; conditions: Avena fatua, 312 h, rate 250 g/ha, evaluated after 13 days, 100=total damage to plant, 0=no damage to plant
Outline: as §1

Lolium perenne (LOLPE) [5] = assay: Example B post-emergence herbicidal test, LOLPE; conditions: Lolium perenne, 312 h, rate 250 g/ha, evaluated after 13 days, scale 0-100, read-out: Post-emergence activity LOLPE (100=total damage to plant; 0=no damage to plant)
Outline: (§2)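 Foliar application to 8-day-old pot-grown seedlings in a glasshouse (24/16 °C, 14 h photoperiod, 65% humidity). Spray solution was derived from an acetone/water (50:50) formulation with 0.5% Tween 20. Injury was assessed 13 days later on a 0–100 scale.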

[6] = system: Alopecurus myosuroides (ALOMY); assay: Example B post-emergence herbicidal test, ALOMY; conditions: Alopecurus myosuroides, 312 h, rate 250 g/ha, evaluated after 13 days, scale 0-100, read-out: Post-emergence activity ALOMY (100=total damage to plant; 0=no damage to plant)
Outline: as §2

[7] = system: Echinochloa crus-galli (ECHCG); assay: Example B post-emergence herbicidal test, ECHCG; conditions: Echinochloa crus-galli, 312 h, rate 250 g/ha, evaluated after 13 days, scale 0-100, read-out: Post-emergence activity ECHCG (100=total damage to plant; 0=no damage to plant)
Outline: as §2

Avena fatua (AVEFA) [8] = assay: Example B post-emergence herbicidal test, AVEFA; conditions: Avena fatua, 312 h, rate 250 g/ha, evaluated after 13 days, scale 0-100, read-out: Post-emergence activity AVEFA (100=total damage to plant; 0=no damage to plant)
Outline: as §2

| Structure (SMILES) | pest or weed control at 250 g/ha (Lolium perenne (LOLPE) [1]) | pest or weed control at 250 g/ha [2] | pest or weed control at 250 g/ha [3] | pest or weed control at 250 g/ha (Avena fatua (AVEFA) [4]) | pest or weed control at 250 g/ha (Lolium perenne (LOLPE) [5]) | pest or weed control at 250 g/ha [6] | pest or weed control at 250 g/ha [7] | pest or weed control at 250 g/ha (Avena fatua (AVEFA) [8]) |
| --- | --- | --- | --- | --- | --- | --- | --- | --- |
| Cc1cc(C)c(C2C(=O)CC(CC3CCN(C(=O)N4CCOCC4)CC3)C2=O)c(C)c1 (stereo not drawn) [Compound T100] | 90% | 60% | 70% | 60% | 80% | 90% | 60% | 90% |
| CCS(=O)(=O)N1CCC(CC2CC(=O)C(c3c(C)cc(C)cc3C)C2=O)CC1 (stereo not drawn) [Compound T95] | 100% | 90% | 60% | 90% | 100% | 90% | 70% | 100% |
| Cc1cc(C)c(C2C(=O)CC(CC3CCN(C(=O)C(C)C)CC3)C2=O)c(C)c1 (stereo not drawn) [Compound T80] | 100% | 70% | 70% | 70% | 90% | 90% | 80% | 100% |
| Cc1cc(C)c(C2C(=O)CC(CC3CCN(C(=O)OC(C)C)CC3)C2=O)c(C)c1 (stereo not drawn) [Compound T107] | 70% | 80% | 70% | 60% | 90% | 70% | 60% | 90% |
| Cc1cccc(C)c1C1C(=O)CC(CC2CCOCC2)C1=O (stereo not drawn) [Compound T52] | 100% | 100% | 80% | 80% | 90% | 90% | 100% | 80% |
| Cc1cc(-c2ccc(Cl)cc2F)cc(C)c1C1C(=O)C/C(=C\C2CCOC2)C1=O (stereo not drawn) [Compound T135] | 40% | 0% | 60% | 30% | 70% | 80% | 90% | 80% |
| Cc1cc(-c2ccccc2)cc(C)c1C1C(=O)CC(CC2CCOC2)C1=O (stereo not drawn) [Compound T159] | 70% | 50% | 100% | 30% | 100% | 90% | 100% | 90% |
| Cc1cc(-c2ccccc2F)cc(C)c1C1C(=O)CC(CC2CCOCC2)C1=O (stereo not drawn) [Compound T139] | 80% | 70% | 90% | 60% | 90% | 90% | 100% | 90% |
| Cc1cc(C)c(C2C(=O)CC(CC3CCN(C(=O)Cc4ccccc4)CC3)C2=O)c(C)c1 (stereo not drawn) [Compound T82] | 90% | 50% | 60% | 50% | 90% | 90% | 80% | 100% |
| Cc1cc(C)c(C2C(=O)CC(CC3CCN(C(=O)c4ccccc4)CC3)C2=O)c(C)c1 (stereo not drawn) [Compound T70] | 70% | 20% | 60% | 70% | 80% | 70% | 80% | 100% |
| CCc1cc(C)cc(C)c1C1C(=O)CC(CC2CCOCC2)C1=O (stereo not drawn) [Compound T50] | 100% | 100% | 100% | 100% | 100% | 100% | 100% | 100% |
| Cc1cc(C)c(C2=C(OC(=O)c3ccc(Cl)nc3)CC(CC3CCN(C(=O)c4ccc(Cl)nc4)C3)C2=O)c(C)c1 (stereo not drawn) [Compound P64] | 80% | 70% | 80% | 70% | 90% | 100% | 90% | 100% |
| CCSC(=O)OC1=C(c2c(C)cc(C)cc2C)C(=O)/C(=C/C2CCN(C(=O)SCC)C2)C1 (stereo not drawn) [Compound P47] | 60% | 30% | 60% | 50% | 60% | 70% | 50% | 60% |
| CC(=O)N1CCC(/C=C2\CC(=O)C(c3c(C)cc(C)cc3C)C2=O)CC1 (stereo not drawn) [Compound T15] | 100% | 70% | 100% | 100% | 100% | 100% | 100% | 100% |
| Cc1cc(C)c(C2C(=O)CC(CC3CCN(C(=O)OCCCl)CC3)C2=O)c(C)c1 (stereo not drawn) [Compound T103] | 30% | 30% | 10% | 20% | 50% | 50% | 30% | 60% |
| Cc1cc(C)c(C2C(=O)CC(CC3CCN(C(=O)C(F)(F)C(F)F)C3)C2=O)c(C)c1 (stereo not drawn) [Compound T131] | 90% | 70% | 100% | 70% | 100% | 90% | 90% | 90% |
| Cc1cc(C)c(C2C(=O)CC(CC3CCN(C(=O)C4CCCCC4)CC3)C2=O)c(C)c1 (stereo not drawn) [Compound T89] | 70% | 50% | 60% | 10% | 40% | 30% | 40% | 20% |
| Cc1cc(C)c(C2=C(O)CC(CC3CCOCC3)C2=O)c(C)c1 (stereo not drawn) [Compound P67] | 100% | 80% | 90% | 90% | 100% | 100% | 100% | 100% |
| Cc1cc(Br)cc(C)c1C1C(=O)CC(CC2CCOC2)C1=O (stereo not drawn) [Compound T160] | 90% | 30% | 70% | 40% | 100% | 40% | 70% | 60% |
| Cc1cc(C)c(C2C(=O)CC(CC3CCN(C(=O)c4cc(F)c(Cl)nc4Cl)CC3)C2=O)c(C)c1 (stereo not drawn) [Compound T106] | 20% | 20% | 20% | 30% | 30% | 40% | 30% | 10% |
| Cc1cc(C)c(C2C(=O)CC(CC3CCN(C(=O)CC(C)C)CC3)C2=O)c(C)c1 (stereo not drawn) [Compound T113] | 70% | 60% | 90% | 70% | 100% | 90% | 70% | 100% |

From patent US9096560B2, “5-heterocyclylalkyl-3-hydroxy-2-phenylcyclopent-2-enones as herbicides” (Syngenta Limited, priority 2008, dated 2015)
